Measurements reported in patent publication US20090148546A1, “Methods and compounds fo rthe treatment of obesity and obesity-related disorders” (priority 2005, published 2009).

Tested on: 3T3-L1 cells
Experiment: Adipogenesis: differentiation of 3T3-L1 cells into adipocytes, oil red-O staining
Format: cell-based, mouse
Details: 10 days
From the text: It is reported here for the first time that capsaicin is a potent inhibitor of adipogenesis. The accepted model for the process of adipogenesis is the differentiation of mouse-derived 3T3-L1 fibroblasts into adipocytes after treatment with potent inducers such as dexamethasone, isobutyrylmethylxanthine, and insulin. In this model, the adipocytes are identified by the accumulation of lipid droplets in the cytoplasm. We tested the effect of the presence or absence of capsaicin on this process.
NIH 3T3-L1 cells were obtained from American Type Culture Collection (Manassas, Va.). NIH 3T3-L1 cells are a mouse-derived fibroblast cell line that convert into adipocytes under certain conditions. This cell system is well known in the art and is a standard model for the study of adipocyte metabolism. The cells were cultured using well known methods in complete medium (Dulbecco Modified Eagle's Medium (DMEM) (4500 mg glucose/liter) containing 10% fetal bovine serum (FBS)). When the cells were 75% confluent, they were subcultured into multi-well culture plates and allowed to grow to confluency. The differentiation of the cells into adipocytes was initiated by switching to inducing medium (complete medium containing 10 uM dexamethasone, 0.5 mM isobutyrylmethylxanthine, and 10 ug/ml insulin). 1 ug/ml and 0.5 ug/ml doses of capsaicin were added to a number of the culture wells. After 48 hours, the inducing medium was replaced with maintenance medium 1 (complete medium containing insulin (10 ug/ml) with or without capsaicin). After 24 hours, the cells were switched to maintenance medium 2 (complete medium with or without capsaicin). The cultures were followed for up to 10 days for differentiation into adipocytes. The culture medium was replaced every 2 days with a medium of similar composition. The cells were photographed every 2 days to follow their progress. On day 10, the cells were stained with oil red-O (to stain for intracellular lipid) and photographed.

**Q.** What does the source list for `COc1cc(CNC(=O)CCCC/C=C/C(C)C)ccc1O` [capsaicin, trans-8-methyl-N-vanillyl-6-nonenamide]?
**A.** differentiation into adipocytes (0.5 ug/ml and 1 ug/ml): did not become adipocytes; lipid accumulation (oil red-O stain) (0.5 ug/ml, FIG. 2): significant decrease in lipid accumulation; lipid accumulation (oil red-O stain) (1 ug/ml, FIG. 3): significant decrease in lipid accumulation
